# Patent US11253515B2, “Pharmaceutical compositions and dosage forms” (IGNYTA, INC., priority 2017, dated 2022)
# How the values were obtained:
# [1] = Excipient compatibility of 1:1 acid admixtures, HPLC after three months storage; assay type: physicochemical; details: 1:1 weight ratio dry powder mixture, open vial
# Protocol: (§1) The mixtures were prepared in duplicate for each sample, and stored in open top, 4 mL glass vials at (1) 60° C./dry heat and (2) 40° C. and 75% relative humidity (RH).
# The HPLC traces analyses were conducted on an Agilent 1100 LC, equipped with Agilent Diode Array Detector and Chemstation Software using the conditions found in the table below.
# [2] = Physical state and moisture uptake of 1:1 acid admixtures on storage; assay type: physicochemical; details: 40° C. and 75% RH, open top vial
# Protocol: as §1
# All admixture samples and the control samples stored at the 60° C. and dry heat condition remained as dry powders.
# [3] = Comparative pharmacokinetic study of F1 and F2 with lansoprazole (Example 12); assay type: in vivo, human; details: 800 mg fixed dose, 23 healthy subjects, body weights 55 to 106 kg
# Protocol: A comparative pharmacokinetic study in healthy, human subjects was conducted comparing a 200 mg dosage strength of pharmaceutical composition F1 (as described in Example 11) with a 200 mg dosage strength pharmaceutical composition F2 (as described in Example 10).
# Pharmaceutical compositions F1 and F2, along with and lansoprazole, were administered orally with approximately 240 mL of water, according to the randomization scheme. Lansoprazole was administered as 30 mg lansoprazole delayed-release capsules.
# Subjects were randomized into two groups, A and B. Periods 1 and 2 were conducted as a crossover design under fasting conditions where all subjects received F1 and F2. […] A representative summary of Periods 1, 2, and 3 and the pharmaceutical compositions subjects in groups A and B will receive in each Period is found below.
# Lansoprazole administration on days 1 to 9 was conducted in the morning, approximately 1.5 hours prior to administration of either F1 or F2 at hour 0 on day 4.
# Subjects were randomized and received 3 out of 4 treatments in one of the following sequences: […] (i.e., Periods 1 and 2 were conducted as a crossover design under fasting conditions [Treatments A and B]). […] Each subject received each of the 3 assigned treatments on one occasion.
# Treatments A and C utilized 200 mg strength F1 capsules.
# Treatments B and D utilized 200 mg F2 capsules. […]
# [4] = Single-dose food effect study in dogs; assay type: in vivo; details: formulation that did not comprise at least one acidulant
# Source text: Such food effects can cause difficulty during human testing of drugs as the fed or fasted condition of the patient can cause exposure or bioavailability of drugs to vary widely.
# [5] = human, in vivo
# TrkB = TrkB (Homo sapiens, UniProt Q16620); details: background statement; cited from earlier work
# Sequence of TrkB (Q16620 32-822): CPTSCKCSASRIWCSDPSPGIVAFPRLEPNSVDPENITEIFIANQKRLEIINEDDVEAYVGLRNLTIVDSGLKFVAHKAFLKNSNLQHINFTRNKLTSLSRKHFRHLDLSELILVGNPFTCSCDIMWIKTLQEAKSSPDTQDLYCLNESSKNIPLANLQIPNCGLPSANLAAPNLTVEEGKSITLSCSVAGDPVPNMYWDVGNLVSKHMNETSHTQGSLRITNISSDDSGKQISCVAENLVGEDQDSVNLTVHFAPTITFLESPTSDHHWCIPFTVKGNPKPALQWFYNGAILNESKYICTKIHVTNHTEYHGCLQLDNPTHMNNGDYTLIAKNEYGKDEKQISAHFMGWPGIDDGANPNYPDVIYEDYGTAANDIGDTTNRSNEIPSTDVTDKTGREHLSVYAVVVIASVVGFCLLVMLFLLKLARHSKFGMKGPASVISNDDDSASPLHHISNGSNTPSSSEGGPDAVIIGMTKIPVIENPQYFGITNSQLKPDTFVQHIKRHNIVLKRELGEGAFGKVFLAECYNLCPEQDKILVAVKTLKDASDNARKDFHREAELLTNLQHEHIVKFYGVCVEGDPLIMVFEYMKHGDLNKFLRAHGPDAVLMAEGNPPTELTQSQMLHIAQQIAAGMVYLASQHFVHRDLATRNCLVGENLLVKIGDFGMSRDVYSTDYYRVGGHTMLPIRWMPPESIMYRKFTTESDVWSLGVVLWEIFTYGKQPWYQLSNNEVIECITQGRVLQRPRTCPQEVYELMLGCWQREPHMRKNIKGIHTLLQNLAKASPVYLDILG
# TrkC = TrkC (Homo sapiens, UniProt Q16288); details: background statement; cited from earlier work
# Sequence of TrkC (Q16288 32-839): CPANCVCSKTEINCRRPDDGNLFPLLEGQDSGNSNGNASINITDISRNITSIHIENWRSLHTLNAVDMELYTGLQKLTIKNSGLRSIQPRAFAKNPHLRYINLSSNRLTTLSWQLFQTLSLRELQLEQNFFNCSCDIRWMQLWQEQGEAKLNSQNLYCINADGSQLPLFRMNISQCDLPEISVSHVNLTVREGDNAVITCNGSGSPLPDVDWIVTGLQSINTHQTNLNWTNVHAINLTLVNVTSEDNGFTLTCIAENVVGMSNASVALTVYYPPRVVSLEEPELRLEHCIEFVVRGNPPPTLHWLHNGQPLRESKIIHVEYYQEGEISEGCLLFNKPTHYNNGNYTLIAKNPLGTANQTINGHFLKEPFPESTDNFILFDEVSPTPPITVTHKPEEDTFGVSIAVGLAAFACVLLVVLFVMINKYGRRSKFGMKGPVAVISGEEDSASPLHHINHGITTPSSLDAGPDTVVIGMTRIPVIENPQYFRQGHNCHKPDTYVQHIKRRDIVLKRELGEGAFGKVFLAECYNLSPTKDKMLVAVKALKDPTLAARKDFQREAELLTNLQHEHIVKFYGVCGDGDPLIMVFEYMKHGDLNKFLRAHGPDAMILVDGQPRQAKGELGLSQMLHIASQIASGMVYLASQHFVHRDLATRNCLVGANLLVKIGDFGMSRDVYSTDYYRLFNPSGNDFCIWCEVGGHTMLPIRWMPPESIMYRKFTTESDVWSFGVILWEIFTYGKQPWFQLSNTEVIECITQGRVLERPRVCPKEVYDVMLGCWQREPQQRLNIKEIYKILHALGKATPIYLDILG
# [6] = biological target: anaplastic lymphoma kinase (ALK) (Homo sapiens, UniProt Q9UM73); details: background statement; cited from earlier work
# Sequence of anaplastic lymphoma kinase (ALK) (Q9UM73 19-1620): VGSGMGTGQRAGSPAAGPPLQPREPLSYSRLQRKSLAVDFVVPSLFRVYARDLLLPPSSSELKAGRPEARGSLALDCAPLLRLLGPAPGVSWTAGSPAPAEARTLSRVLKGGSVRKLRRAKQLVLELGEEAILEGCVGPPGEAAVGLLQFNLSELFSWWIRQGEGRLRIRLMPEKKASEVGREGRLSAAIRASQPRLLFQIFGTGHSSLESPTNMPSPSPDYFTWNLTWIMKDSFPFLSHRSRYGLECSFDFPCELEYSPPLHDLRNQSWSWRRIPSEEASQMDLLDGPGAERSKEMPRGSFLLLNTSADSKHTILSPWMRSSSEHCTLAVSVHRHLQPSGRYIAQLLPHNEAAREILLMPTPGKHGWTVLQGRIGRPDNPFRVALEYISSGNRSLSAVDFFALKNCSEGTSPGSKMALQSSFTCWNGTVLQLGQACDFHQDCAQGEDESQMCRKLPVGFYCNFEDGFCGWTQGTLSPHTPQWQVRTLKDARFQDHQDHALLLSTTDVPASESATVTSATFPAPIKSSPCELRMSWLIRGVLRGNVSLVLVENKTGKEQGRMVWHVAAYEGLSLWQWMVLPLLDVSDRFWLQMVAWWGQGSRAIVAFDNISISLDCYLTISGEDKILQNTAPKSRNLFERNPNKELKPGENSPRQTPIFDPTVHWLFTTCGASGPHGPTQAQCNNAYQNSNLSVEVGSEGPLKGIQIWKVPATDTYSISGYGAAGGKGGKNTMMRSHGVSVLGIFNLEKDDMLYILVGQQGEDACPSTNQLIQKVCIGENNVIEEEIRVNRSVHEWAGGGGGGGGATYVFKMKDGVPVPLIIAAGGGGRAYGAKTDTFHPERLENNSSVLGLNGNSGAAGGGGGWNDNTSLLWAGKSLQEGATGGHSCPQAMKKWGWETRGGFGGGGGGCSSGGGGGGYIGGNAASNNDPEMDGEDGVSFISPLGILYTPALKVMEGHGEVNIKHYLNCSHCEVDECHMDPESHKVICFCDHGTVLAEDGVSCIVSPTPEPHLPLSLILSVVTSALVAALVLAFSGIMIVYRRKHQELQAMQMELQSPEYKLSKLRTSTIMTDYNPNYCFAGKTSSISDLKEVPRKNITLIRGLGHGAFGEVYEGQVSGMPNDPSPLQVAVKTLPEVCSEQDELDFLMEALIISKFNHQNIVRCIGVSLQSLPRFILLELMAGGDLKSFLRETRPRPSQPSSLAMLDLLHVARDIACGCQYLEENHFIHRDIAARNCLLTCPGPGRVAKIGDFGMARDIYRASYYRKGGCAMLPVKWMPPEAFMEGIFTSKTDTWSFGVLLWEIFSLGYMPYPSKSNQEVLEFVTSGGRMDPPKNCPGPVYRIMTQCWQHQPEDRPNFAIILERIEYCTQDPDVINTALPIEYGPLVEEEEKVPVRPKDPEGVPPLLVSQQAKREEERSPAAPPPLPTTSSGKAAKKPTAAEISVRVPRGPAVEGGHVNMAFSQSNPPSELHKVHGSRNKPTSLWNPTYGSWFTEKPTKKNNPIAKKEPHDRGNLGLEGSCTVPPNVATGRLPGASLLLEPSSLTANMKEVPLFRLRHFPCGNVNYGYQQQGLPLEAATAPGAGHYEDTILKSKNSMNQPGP
# [7] = three months at 60° C. Dry Heat
structure (smiles),measurement,setting,value
"CN1CCN(c2ccc(C(=O)Nc3n[nH]c4ccc(Cc5cc(F)cc(F)c5)cc34)c(NC3CCOCC3)c2)CC1 [N-[5-(3,5-difluorobenzyl)-1H-indazol-3-yl]-4-(4-methyl-piperazin-1-yl)-2-(tetrahydro-pyran-4-ylamino)-benzamide]",% UV Purity,[1]; three months at 40° C./75% RH,99.2%
same,Most abundant impurity (area %),"[1]; three months at 40° C./75% RH, listed as Control",0.13%
same,Most abundant impurity (area %),"[1]; three months at 40° C./75% RH, listed as control",0.13%
same,% UV Purity,[1]; [7],99.3%
same,Most abundant impurity (area %),[1]; [7],0.13%
same,physical state after 13 days of storage,[2],remained dry
same,correlation of total exposure with body weight or body surface area,[3],did not correlate with body weight or body surface area
same,exposure levels under fed conditions compared to fasting conditions,[4],approximately 2 fold
same,"exposures with concomitant proton pump inhibitor drugs (PPIs), such as lansoprazole",[5],variable
same,AUC higher when taken with food,[5]; 400 mg/m2,~50%
same,Cmax higher with food,[5]; 400 mg/m2,approximately 150%
same,inhibition of tyrosine kinase,TrkB,potent inhibitor
same,inhibition of tyrosine kinase,TrkC,potent inhibitor
same,inhibition of tyrosine kinase,[6],potent inhibitor
